Results: patent US20120027720A1, “PEPTIDE CONJUGATES” (priority 2008, published 2012)
*1 amine or outer side, *2 acyl side, *3 side chain or, on linkers, in order; H or OH if unused. Where no end group is shown, it is not given here. [ ]: non-standard residue; d: D form. Pen(Acm) = L-S-acetamidomethyl-penicillamine, CC(=O)NCSC(C)(C)[C@H](N[*:1])C(=O)[*:2]; Cys(StBu) = L-S-tert-butylthio-cysteine, CC(C)(C)SSC[C@H](N[*:1])C(=O)[*:2]; Cys(Bzl) = L-S-benzyl-cysteine, O=C([C@H](CSCc1ccccc1)N[*:1])[*:2]; Met(O2) = CS(=O)(=O)CC[C@H](N)C(=O)O; 2Pal = N[C@@H](Cc1ccccn1)C(=O)O; Met(O) = CS(=O)CC[C@H](N)C(=O)O; 2Thi = N[C@@H](Cc1cccs1)C(=O)O; Cha = N[C@@H](CC1CCCCC1)C(=O)O; Phg = N[C@H](C(=O)O)c1ccccc1; Tle = CC(C)(C)[C@H](N)C(=O)O; hCys = N[C@@H](CCS)C(=O)O; hSer = N[C@@H](CCO)C(=O)O; Nle = CCCC[C@H](N)C(=O)O; Nva = CCC[C@H](N)C(=O)O; Abu = CC[C@H](N)C(=O)O; Dap = NC[C@H](N)C(=O)O

Columns and labels:
[1] = tested on: CaCo2 monolayers; test: Epithelial flux of Lucifer Yellow through cell monolayer; format: cell-based; parameters: key to Enhanced LY permeability: + indicates an enhancement of the permeability of the tight junctions were observed; − indicates no enhancement of permeability was observed; conditions: Lucifer Yellow flux, Caco-2 monolayer
From the text: (§1) Agonists of tight junctions can be identified by their ability to enhance the flux of compounds (e.g. ions, Lucifer Yellow) through a cell monolayer that comprises tight junctions; or by their ability to reduce TEER across a cell monolayer that comprises tight junctions. Treatment of CaCo2 monolayers with peptide FCIGRL (SEQ ID NO: 1) led to a 51-fold enhancement of Lucifer Yellow permeability through CaCo2 monolayers compared to vehicle alone. Treatment of CaCo2 monolayers with peptide FCIGRL led to a 16-fold decrease in TEER across CaCo2 monolayers compared to vehicle alone.
(§2) Determination of TEER and Lucifer Yellow Flux
(§3) Prepare Modified Hank's Balanced Salt Solution (MHBSS) by obtaining 1 L bottle of HBSS removing 10 ml of HBSS and replacing it with 10 ml HEPES buffer pH 7.0. Adjust pH to 7.4±0.1 using concentrated NaOH (10N).
(§4) Remove Caco-2 cells from incubator, grown on 12-well, […], polycarbonate Transwell® filters (Corning) and record passage#, date cells seeded and age in days.
(§5) Aspirate cell culture medium from both the apical (AP) and basolateral (BL) compartments, replacing with 0.5 ml and 1.5 ml of MHBSS, respectively. Incubate cells at 37° C. for 30 minutes.
(§6) Aspirate solution from the apical compartment of each filter (n=3 per condition) and replace with 0.5 ml of control and test solutions containing Lucifer Yellow and test compound if appropriate.
(§7) Place all plates into incubator set at 37° C. (±0.2), 50 RPM (±5) for a total of 180 minutes.
At t=60, 120 and 180 minutes remove 100 μl from each basolateral compartment and place it in a 96-well plate for Lucifer Yellow analysis, replace with 100 μl of MHBSS.
Make a Lucifer Yellow standard curve with the following dilutions (7500 μM, 3750 μM, 750 μM, 375 μM, 75 μM, 37.5 μM, 7.5 μM, 3.75 μM, 0.75 μM) and pipette […] of each into a 96-well plate except for the first three standards mentioned above which require a 1:10 dilutions prior to transferring to the 96-well plate.
Harvest the remaining start solutions and what is left in each apical compartment into 1.5 ml vials. Freeze at −20° C. for future analysis.
Analyze each 96-well plate in a Tecan Spectra Fluor Plus using Magellan at 485 and 535 nm.
(§8) Cells: Caco-2 cells passage 40-60 grown on Transwell® plates for 21-28 days
(§9) Culture Medium: DMEM supplemented with 10% fetal bovine serum, 1% NEAA, 1% Penn/Strep
(§10) Buffers: Hank's Balanced Salt Solution (HBSS) without calcium and magnesium
(§11) Flasks: 100×20 mm Tissue culture dish Falcon.
(§12) Plates: 12 well polycarbonate Transwell® filters; 0.3 uM pore size

[2] = tested on: CaCo2 monolayers; test: Trans Epithelial Electric Resistance (TEER) across cell monolayer; format: cell-based; parameters: key to Reduced TEER: + indicates an enhancement of the permeability of the tight junctions were observed; − indicates no enhancement of permeability was observed; conditions: Caco-2 monolayer
From the text: as §1, §2, §3, §4, §5
Using the MilliCell®-ERS instrument (Millipore), measure and record the transepithelial electrical resistance (TEER) across each filter and record.
as §6, §7
At t=30, 60, 120 and 180 minutes, measure and record the transepithelial electrical resistance (TEER) across each filter using the MilliCell-ERS instrument.
as §8, §9, §10, §11, §12

Substance | Enhanced LY permeability [1] | Reduced TEER [2]
120 (FPIGRL; also: peptide conjugate) [compound 120] | − | −
121 (FWIGRL; also: peptide conjugate) [compound 121] | + | +
123 (FPIGRL; also: peptide conjugate) [compound 123] | − | −
124 (FDIGRL; also: peptide conjugate) [compound 124] | − | −
125 (FLIGRL-NH2; also: peptide conjugate) [compound 125] | + | +
126 (FFIGRL-NH2; also: peptide conjugate) [compound 126] | + | +
128 (FGIGRL; also: peptide conjugate) [compound 128] | + | −
129 (FQIGRL; also: peptide conjugate) [compound 129] | − | −
130 (FEIGRL; also: peptide conjugate) [compound 130] | − | −
132 (FNIGRL; also: peptide conjugate) [compound 132] | − | +
133 (FYIGRL; also: peptide conjugate) [compound 133] | − | −
134 (FLIGRL; also: peptide conjugate) [compound 134] | − | −
135 (FVIGRL; also: peptide conjugate) [compound 135] | + | +
136 (FIIGRL; also: peptide conjugate) [compound 136] | + | +
138 (LRGILF-NH2; also: peptide conjugate) [compound 138] | + | +
139 (FLIGR-NH2; also: peptide conjugate) [compound 139] | − | −
140 (H-F[2Thi]IGRL-OH; SMILES CC[C@H](C)[C@H](NC(=O)[C@H](Cc1cccs1)NC(=O)[C@@H](N)Cc1ccccc1)C(=O)NCC(=O)N[C@@H](CCCNC(=N)N)C(=O)N[C@@H](CC(C)C)C(=O)O) [compound 140] | − | −
142 (H-F[Abu]IGRL-OH; SMILES CC[C@H](NC(=O)[C@@H](N)Cc1ccccc1)C(=O)N[C@H](C(=O)NCC(=O)N[C@@H](CCCNC(=N)N)C(=O)N[C@@H](CC(C)C)C(=O)O)[C@@H](C)CC) [compound 142] | − | −
143 (H-F[Met(O)]IGRL-OH; not fully specified; also: peptide conjugate, Xaa: 'may be' L-methionine-sulfoxide) [compound 143] | − | −

Substance | Enhanced LY permeability [1] | Reduced TEER [2]
144 (H-F[Met(O2)]IGRL-OH; not fully specified; also: peptide conjugate, Xaa: 'may be' L-methionine-sulfone) [compound 144] | − | −
145 (H-F[dC]IGRL-OH; also: peptide conjugate) [compound 145] | + | +
146 (H-F[Nva]IGRL-OH; not fully specified; printed as H-Phe-Nva-Ile-Gly-Arg-Leu-OH; also: peptide conjugate, Xaa: 'may be' norvaline) [compound 146] | − | −
147 (H-F[Nle]IGRL-OH; not fully specified; printed as H-Phe-Nle-Ile-Gly-Arg-Leu-OH; also: peptide conjugate, Xaa: 'may be' L-norleucine) [compound 147] | − | −
148 (Ac-F[hSer]IGRA; also: peptide conjugate) [compound 148] | + | +
150 (Ac-F[hSer]IGRF; also: peptide conjugate) [compound 150] | + | +
151 (F[hSer]IGRF; also: peptide conjugate, Xaa: 'may be' homoserine) [compound 151] | − | −
152 (F[Cys(Bzl)]IGRL; also: peptide conjugate, Xaa: 'may be' L-S-benzyl-cysteine) [compound 152] | − | −
153 (F[Cys(StBu)]IGRL; also: peptide conjugate, Xaa: 'may be' L-S-tert-butylthio-cysteine) [compound 153] | − | −
154 (F[Phg]IGRL-OH; not fully specified; printed as Phe-Phg-Ile-Gly-Arg-Leu-OH; also: peptide conjugate, Xaa: 'may be' L-phenylglycine) [compound 154] | + | +
155 (F[dV]IGRL-OH; also: peptide conjugate) [compound 155] | − | −
156 (F[Cha]IGRL-OH; also: peptide conjugate) [compound 156] | − | −
157 (F[Tle]IGRL-OH; not fully specified; also: peptide conjugate, Xaa: 'may be' L-tert-butylglycine) [compound 157] | + | +
159 (F[L‑(R,S)‑3,4‑cis‑methanoproline]IGRL; not fully specified; also: peptide conjugate) [compound 159] | − | +
160 (F[Dap]IGRL; not fully specified; printed as Phe-Dpr-Ile-Gly-Arg-Leu; also: peptide conjugate) [compound 160] | + | +
161 (F[Pen(Acm)]IGRL; also: peptide conjugate) [compound 161] | + | +
162 (F[hCys]IGRL; also: peptide conjugate, Xaa: 'may be' homocysteine) [compound 162] | + | +
163 (F[2Pal]IGRL; also: peptide conjugate, Xaa: 'may be' L-beta-(2-pyridyl)-alanine) [compound 163] | − | −
164 (FL[dI]GRL-NH2; also: peptide conjugate) [compound 164] | − | −
